Columns and labels:
Type in all cases: cell-based
[1] = test system: M2-10B4 marrow stromal cells; experiment: Alkaline phosphatase activity in M2-10B4 marrow stromal cells; conditions: for Effect on Shh-induced alkaline phosphatase activity / Alkaline Phosphatase Activity: M2-10B4 cells
Source text: Alkaline phosphatase activity provides a measure of the osteogenic differentiation of cells. […] The oxysterol combination SS contains 22(S)-hydroxycholesterol and 20(S)-hydroxycholesterol in equal molar proportions. An indication of the molar concentration of the oxysterol combination SS refers to the molar concentration of each component of the combination.

hedgehog pathway = experiment: Net effect of LXR agonists on the hedgehog pathway
Source text: Thus, GW3965 is a hedgehog-inhibiting LXR agonist. […] Thus, 22(R)-hydroxycholesterol is a hedgehog-inhibiting LXR agonist. […] The Oxy13 compound is discussed in international application PCT/US2007/05073, which is hereby incorporated by reference.
A known hedgehog agonist is contacted with a model cell in an amount known to induce a hedgehog pathway response or hedgehog signaling response in the cell. Any cell that responds to a hedgehog agonist and an LXR agonist can be used as a model cell. The compound is then tested with an assay to measure the level of hedgehog activation or hedgehog signaling. One of skill in the art would know how to select an assay and conduct an assay to measure the level of hedgehog activation or hedgehog signaling. The hedgehog agonist will cause the level of hedgehog activation or signaling to increase above that of a control cell. While the hedgehog agonist is in contact with the cell, the compound being tested is also contacted with the cell. The level of hedgehog activation or signaling is measured. If introducing the compound decreases the level of hedgehog activation or signaling a statistically significant amount below the level when only the hedgehog agonist was in contact with the cell, then the compound is deemed a hedgehog-inhibiting LXR agonist.

marrow stromal cells = experiment: Osteogenic differentiation of marrow stromal cells; conditions: for Effect on oxysterol-induced osteogenic differentiation: marrow stromal cells
Experimental: Certain osteogenic oxysterols, such as 20(S)-hydroxycholesterol (20S), induce the osteogenic differentiation of marrow stromal cells by activating the hedgehog signaling pathway. […] Thus, LXR activation can interfere with osteogenic differentiation induced by the activation of hedgehog signaling.
When treated with from 1-10 μM of GW3965 for 8 days, GW3965 inhibited Shh-induced alkaline phosphatase activity.

LXRα and LXRβ = experiment: Inhibition of Shh-induced signaling and alkaline phosphatase activity in siRNA-transfected cells; conditions: for Ability to inhibit Shh-induced signaling and alkaline phosphatase activity: cells transfected with LXRα and LXRβ siRNA; for Ability to inhibit Shh-induced signaling and alkaline phosphatase activity: blocked or not: cells transfected with control scrambled siRNA
Source text: Small interfering RNA (siRNA) to LXRα and LXRβ caused an 80-90% inhibition of mRNA expression for these genes, as well as inhibition of ligand-induced expression of LXR target genes, ATP-binding cassette (ABC) transporter proteins ABCA1 and ABCG1.

[2] = test system: Gli-luciferase reporter construct (8Xgli); experiment: Gli-luciferase reporter assay in M2-10B4 cells
Experimental: Activation or inhibition of the hedgehog pathway was assessed by measuring Gli-reporter activity. This provided a direct indication of the activation or inhibition of the hedgehog pathway. A first set of marrow stromal cells, M2-10B4, were transfected with a Gli-luciferase reporter construct (8Xgli) and a second set of M2-10B4 were transfected with an empty reporter construct without Gli response elements (pGL3b). […] Gli-luciferase reporter activity was tested after 48 hours of treatment. FIG. 1 presents the results of the study. Results from a representative experiment are shown as the mean of triplicate determinations±SD, and expressed as fold induction over control untreated cells.

Gli-1 = experiment: Q-RT-PCR expression of hedgehog target gene Gli-1 in M2-10B4 cells
Experimental: (§1) Activation or inhibition of the hedgehog pathway was assessed by extracting RNA from test cells and using quantitative real time PCR (Q-RT-PCR) to measure the expression of the hedgehog target genes, Gli-1 and Patched (Ptch). […] Expression of Gli-1 and Patched (Ptch) was measured after 72 hours of treatment. FIGS. 2A and 2B present the results of the study. Results from a representative experiment are shown as the mean of triplicate determinations±SD, and expressed as fold induction over control untreated cells.

[3] = test system: C3H10T½ mouse embryonic fibroblasts; experiment: Alkaline phosphatase activity in C3H10T½ cells; conditions: 1-10 μM
M2-10B4 cells = experiment: Shh-induced osteocalcin mRNA expression in M2-10B4 cells; conditions: 3 days, 1 μM to 10 μM, relative to Shh alone
Patched (Ptch) = experiment: Q-RT-PCR expression of hedgehog target gene Patched (Ptch) in M2-10B4 cells
Experimental: as §1

[4] = test system: C3H10T½ mouse embryonic fibroblasts; experiment: Osteocalcin expression in C3H10T½ cells; conditions: 1-10 μM
[5] = 72 hours, SS 5 μM + TO901317 5 μM
[6] = 72 hours, SS 5 μM + TO901317 10 μM
[7] = 72 hours, Shh 100 ng/mL + TO901317 5 μM
[8] = 72 hours, Shh 100 ng/mL + TO901317 10 μM

CC(C)CCC[C@](C)(O)[C@H]1CC[C@H]2[C@@H]3CC=C4C[C@@H](O)CC[C@]4(C)[C@H]3CC[C@@]21C [20(S)-hydroxycholesterol]
Induction of alkaline phosphatase activity ([1]; marrow stromal cells M2-10B4, oxysterol alone): induce alkaline phosphatase activity
Net effect on the hedgehog pathway (hedgehog pathway): activating the hedgehog pathway

CC(C)CC[C@@H](O)[C@@H](C)[C@H]1CC[C@H]2[C@@H]3CC=C4C[C@@H](O)CC[C@]4(C)[C@H]3CC[C@]12C [22(R)-hydroxycholesterol]
Net effect on the hedgehog pathway (hedgehog pathway): inhibiting the hedgehog pathway

C[C@H](CCCC(C)(C)O)[C@H]1CC[C@H]2[C@@H]3CC=C4C[C@@H](O)CC[C@]4(C)[C@H]3CC[C@]12C [25-hydroxycholesterol]
Net effect on the hedgehog pathway (hedgehog pathway): leaves the hedgehog pathway active

O=C(O)Cc1cccc(OCCCN(Cc2cccc(C(F)(F)F)c2Cl)CC(c2ccccc2)c2ccccc2)c1 [GW3965, 3-[3-[[[2-chloro-3-(trifluoromethyl)phenyl]methyl](2,2-diphenylethyl)amino]propoxy]benzeneacetic acid]
Effect on Shh-induced osteogenic differentiation (marrow stromal cells; M2-10B4 marrow stromal cells): inhibited
Effect on oxysterol-induced osteogenic differentiation (marrow stromal cells): block
Effect on Shh-induced alkaline phosphatase activity ([1]; 8 days, 1-10 μM): inhibited
Ability to inhibit Shh-induced signaling and alkaline phosphatase activity (LXRα and LXRβ): blocked
Ability to inhibit Shh-induced signaling and alkaline phosphatase activity: blocked or not (LXRα and LXRβ): not
Net effect on the hedgehog pathway (hedgehog pathway): inhibiting the hedgehog pathway

C=C(C)CCC[C@](C)(O)C1CCC2C3CC=C4CC(O)CC[C@]4(C)C3CC[C@@]21C (stereo partly drawn) [Oxy13]
Net effect on the hedgehog pathway (hedgehog pathway): activating the hedgehog pathway

O=S(=O)(c1ccccc1)N(CC(F)(F)F)c1ccc(C(O)(C(F)(F)F)C(F)(F)F)cc1 [TO901317]
Gli-luciferase reporter activity ([2]; 48 hours, SS 5 μM + TO901317 5 μM): about 2.5 fold induction over control un
Gli-luciferase reporter activity ([2]; 48 hours, SS 5 μM + TO901317 10 μM): about the same level as of the control cells
Gli-luciferase reporter activity ([2]; 48 hours, Shh 200 ng/mL + TO901317 5 μM): about the same level as of the control cells
Gli-luciferase reporter activity ([2]; TO901317 alone, 5 μM or 10 μM): less than the control cells
Effect on oxysterol-induced osteogenic differentiation (marrow stromal cells): block
Gli-1 expression (Gli-1; [5]): about 8 fold induction over control un
Gli-1 expression (Gli-1; [6]): about 7 fold induction over control un
Gli-1 expression (Gli-1; [7]): about 7 fold induction over control un
Gli-1 expression (Gli-1; [8]): about 3 fold induction over control un
Gli-1 expression (Gli-1; TO901317 alone, 5 μM or 10 μM): less than the control cells
Effect on Shh-induced alkaline phosphatase activity ([1]; 3 days, concentrations as low as 1 μM): inhibited
Alkaline Phosphatase Activity ([1]; SS 5 μM + TO901317 5 μM): 198 ± 17 units/mg protein ± SD
Alkaline Phosphatase Activity ([1]; SS 5 μM + TO901317 10 μM): 61 ± 12 units/mg protein ± SD
Alkaline Phosphatase Activity ([1]; Shh 50 ng/ml + TO901317 5 μM): 3±2 units/mg protein ± SD
Ability to inhibit Shh-induced signaling and alkaline phosphatase activity (LXRα and LXRβ): blocked
Ability to inhibit Shh-induced signaling and alkaline phosphatase activity: blocked or not (LXRα and LXRβ): not
Effect on alkaline phosphatase activity [3]: inhibited
Effect on Shh-induced osteocalcin mRNA expression (M2-10B4 cells): inhibited
Ptch expression (Patched (Ptch); [5]): about 6 fold induction over control un
Ptch expression (FIG. 2B; sentence prints Gli-1 expression) (Patched (Ptch); [6]): about 4 fold induction over control un
Ptch expression (Patched (Ptch); [7]): about the same level as that of the control cells
Ptch expression (Patched (Ptch); [8]): about the same level as that of the control cells
Ptch expression (Patched (Ptch); TO901317 alone, 5 μM or 10 μM): about the same as the control cells
Effect on osteocalcin expression [4]: inhibited
Net effect on the hedgehog pathway (hedgehog pathway): inhibiting the hedgehog pathway

Reference: patent publication US20100048944A1, “INTERACTIONS OF HEDGEHOG AND LIVER X RECEPTOR SIGNALING PATHWAYS” (priority 2006, published 2010)
